According to PMC5847527, “Identification of a novel 2-oxindole fluorinated derivative as in vivo antitumor agent for prostate cancer acting via AMPK activation” (Scientific Reports, 2018):

Legend:
[1] = Tolerability in PC-3 xenograft mice (weight, serum parameters, liver); format: in vivo; details: 5 mg/Kg daily, 15 days
Source text: To validate the therapeutic value of the compound 8c against castration-resistant prostate cancer a murine xenograft model was employed. Due to the potent effect of compound 8c on the aggressive PC-3 cell line and in order to avoid unnecessary wasting of animals according to the 3 Rs guidelines (reduction, replacement, refinement) for the use of animals in research, we only use PC-3 cells for the in vivo studies. PC-3 tumors were induced in nude mice by subcutaneous injection of cells in the right flank of the mouse. When tumors reached a 70 mm^3 volume, mice were daily treated with 5 mg/Kg of compound 8c. In vehicle-treated mice, an increase in tumor growth volume was observed during the course of the study and at the end of experimentation (Fig. 8A).
Male immunodeficient nude-Foxn1 (nu/nu) mice (Envigo RMS, Barcelona, Spain), 4 to 6 week old, were used for all xenograft studies. […] Tumors were measured with external calipers and volume was calculated by the modified ellipsoidal formula as volume = length × (width)^2 × 0.52 mm^3 [52],[53]. At the end of the study, the mice were sacrificed by placing them in a CO2 gas-filled chamber, and the excised tumors were recovered and homogenized in lysis buffer for protein quantification and Western blotting. […]

PC-3 and LNCaP cells = test: MTT cell viability in PC-3 and LNCaP cells under AMPK inhibition or knocking down; format: cell-based, human; details: α1AMPK-selective siRNA
Procedure: Figure 5 AMPK activation by compound 8c in prostate cancer cells. (A) PC-3 and LNCaP cells were treated with vehicle, 25 µM compound 8c, 25 µM compound 8c + 5 μM Dorsomorphin (8c + D) or 5 μM Dorsomorphin (D), for 1 hour or 24 hours and levels of the phosphorylated AMPK (pAMPK), phosphorylated ACC (pACC), phosphorylated Raptor (pRaptor) forms and HIF1α were determined by Western blot. Upper panel, representative Western blot of three different experiments. β-tubulin (β-Tub) serves as a loading control. Lower panel, densitometric analyses of bands represented as the mean of the ratio pAMPK/AMPK or pACC/ACC. (B) Cell viability monitored by MTT assay in PC-3 and LNCaP cells treated with vehicle, 25 µM and 50 μM compound 8c alone or in the presence of 5 μM Dorsomorphin or transfected with control siRNA (siC) or α1AMPK-selective siRNA (siAMPK). (C) LNCaP cells were treated with vehicle, 25 µM compound 8c, 25 µM compound 8c + 5 μM Dorsomorphin (8c + D) or 5 μM Dorsomorphin (D), for 24 hours and levels of Androgen Receptor (AR), Prostate specific antigen (PSA) and Prostate specific membrane antigen (PSMA) were determined by Western blot.Values were normalized with the control and represent the mean ± SD of at least three independent experiments. *p < 0.05 and **p < 0.01 compared to control and ^#p < 0.05 and ^##p < 0.01 compared with 8c-treated group by the Student’s t-test. […]

In the case of `O=C1Nc2ccccc2C1(F)Cc1ccc(-c2ccccc2)o1` (stereo not drawn) [Compound 8c, 3-fluoro-3-((5-phenylfuran-2-yl)methyl)indolin-2-one], the liver morphology [1] was “Liver morphology was normal”, the “mice weight or animal welfare” value [1] was “No effect on mice weight or animal welfare” and the “cell death with AMPK silencing by specific siRNA” value (PC-3 and LNCaP cells) was “prevented 8c-induced cell death”.
